The values below come from patent US20230265099A1, “SIK INHIBITORS AND METHODS OF USE THEREOF” (SOLTEGO, INC., priority 2020, published 2023).

Molecules are shown by their SMILES. pIC50: −log10 of the molar value. “Also recorded” adds a separate entry of the source.

One series deals with SIK3(h) (Homo sapiens, UniProt Q9Y2K2). Description: Salt Induced Kinase inhibition, radiometric [γ-33P]-ATP filter assay, SIK3. Type of series: biochemical.
Series [1] has as its system Primary human epidermal keratinocytes (hEK) cocultured with human epidermal melanocytes. The series can be described thus: Topical application on keratinocyte/melanocyte coculture skin model, Fontana Masson staining. Type of series: cell-based. Particulars: single topical application. The procedure:
Primary human epidermal keratinocytes (hEK) were seeded onto suitable carrier matrices and cocultured with human epidermal melanocytes. SLT-8 was solubilized in PEG/Ethanol/Transcutol® at 0.3 mM, 1 mM and 3 mM and applied topically using a mesh to the surface of the models and removed after 4 hours. Test compounds were applied once daily over a period of 4 days. Untreated models and models treated with the vehicle only served as controls. UV irradiated models were used as positive controls. Fontana Masson staining was conducted to visualize pigmentation effects. Fontana-Masson staining is routinely used to visualize argentaffin substances such as melanin, argentaffin granules and some neurosecretory granules. Melanin is a nonlipid, non-hematogenous pigment. It is a brown-black pigment present normally in the hair, skin, retina, iris, and certain parts of the central nervous system. Argentaffin granules are found in carcinoid tumors. The argentaffin cell granules or melanin stain black. Nuclei stain pink-red. The cytoplasm stains pale pink.

For series [2], the system named is human living skin explants. Description: Pigmentation activity on human living skin explants with stripping. Type of series: cell-based. The procedure: The pigmentation activity of SLT-008 at two concentrations was evaluated on skin using human living skin explants with stripping.
Human skin explants of an average diameter of 11 mm (±1 mm) were prepared on an abdominoplasty from a person with a III phototype. The explants were kept alive in BEM culture medium (BIO-EC's Explants Medium) at 37° C. in a humid, 5%-CO2 atmosphere. The study was performed on human skin tissue, obtained from surgical residues in accord with the Declaration of Helsinki and the article L.1243-4 of the French Public Health Code.
On day 0, the explants of the batches “S” were stripped 5 times using scotch 3M to remove some stratum corneum layers to facilitate the penetration of the tested products. The excipient and the tested products were applied topically on the basis of 2 μl per explant (2 mg/cm^2) and spread using a small spatula on day 0 (D0, after the stripping), D1, D4, D6 and D8.
The culture medium was half renewed (1 ml per well) on D0, D1, D4, D6 and D8. On D0, D1, D4, D5, D6, D7 and D8, the culture media of the irradiated explants (TUV) were replaced by HBSS (Hank's Balanced Saline Solution; 1 ml per explant). Then, the explants of the “TUV” batch were irradiated using a UV simulator Vibert Lourmat RMX 3W with a dose of 2.25 J/cm2 of UVA corresponding to 0.5 MED (minimal erythemal dose) for a phototype II donor. […]

Series [3] relates to reconstituted melanized epidermis. Description: Hematoxylin/eosin (H/E) morphology of reconstituted melanized epidermis. Type of series: cell-based, human. Particulars: 3 selected doses (0.3, 0.01, 0.0033 μg/ml) in culture medium. On the procedure:
Next, absence of toxicity of the three doses was evaluated in reconstituted melanized epidermis by hematoxylin/eosin (H/E) staining of histologic sections.
At the end of the treatments with the test compounds, 3 tissues per dose (n=3) were fixed in 4% formaldehyde, dehydrated and paraffin embedded. Sections of 6 μm of epidermis were stained with eosin and hematoxylin (H/E). Slides were mounted with specific medium and examined with a Leica DM2000 photomicroscope coupled to a digital camera (Zeiss).

In series [4] the test system is melanized reconstructed human epidermis. The series can be described thus: LDH release assay on melanized reconstructed human epidermis. It is filed as cell-based. On the procedure: Quantification of lactate dehydrogenase (LDH) release from melanized tissue was performed at mid-treatment and at the end of treatment with the SLT-008 to ensure that the selected doses were not cytotoxic for the melanized reconstructed human epidermis. The release of LDH by the culture model was assessed after 5 and 10 days of treatments with the Cytotoxicity Detection KitPLUS (Roche-04744926001) according to the manufacturer's instructions. Briefly, culture supernatants were collected and mixed with LDH detection reactants in 96-well plates for 30 min before measuring optical density at 490 nm with a reference wavelength of 600 nm using a spectrophotometer (GloMax-Promega). This was performed in triplicates of cultures (n=3). […] The effect of these concentrations was thus studied on the tissue pigmentation (FIG. 5).
In general terms: LDH in the medium is a marker of cell lysis.

The test system of series [5] is reconstituted melanized human epidermis (NHEKs and NHEMs-MP melanocytes). The series can be described thus: Melanin content from Fontana-Masson stained sections of reconstituted melanized human epidermis. It is filed as cell-based. Particulars: for melanin content (Fontana-Masson stained sections): % relative to DMSO 0.005%. The procedure: Based on the results of dose determination studies, 0.3 μg/ml, 0.01 μg/ml and 0.0033 μg/ml doses of SLT-008 were selected for further application in a culture medium of reconstituted melanized human epidermis. The pigmentation effect studies were carried out on epidermis reconstituted with NHEKs (Normal human epidermal keratinocytes, Lonza 00192906) isolated from foreskin of 3 neonatal Caucasian donors and NHEMs-MP melanocytes.
The tissues were cultured at the air-liquid interface in Epilife medium (Fisher Scientific, MEPI500CA) containing specific supplements (with among others Human Keratinocytes Growth Factors, Fisher Scientific S0015 or S001K) and antibiotics (Gentamycin, Fisher Scientific, 15710049). They were maintained in a humid atmosphere at 37° C. with 5% CO2.
Melanocytes were co-cultured with reconstructed epidermis and cultivated at the air-liquid interface during 14 days in culture medium in a humid atmosphere at 37° C. with CO2 5%. SLT-008 was applied in the culture medium at 3 concentrations, during 10 days, from day 4 to day 14 after placement at the air/liquid interface (n=6), with 5 medium refreshes (at day 7, 8, 9, 10 and 11). In order to allow pigmentation of the epidermis, the concentration in BPE (bovine pituitary extract) in culture medium was adapted during the treatments. DMSO at 0.005%, used for the compounds solubilization was used as reference control condition. IBMX at 150 μM and forskolin at 3.33 μM were used as pro-pigmentation reference compounds to validate the experiment. An additional DMSO control at 0.05% corresponding to the solvent of the reference compounds was added as well in the experiment.
At the end of treatments (day 14), a morphology analysis was performed. The epidermis pigmentation was quantified after solvable extraction and quantified through Fontana Masson staining of histologic sections. 6 μm sections of epidermis embedded in paraffin were prepared and stained with Fontana Masson reagents. Fontana Masson staining specifically stains melanin within the epidermis. In order to visualize the epidermis in addition to the melanin, a counterstaining with hemalum/eosin was performed as well. Tissue section staining was performed in three series with one set for each test compound. Slides with sections of epidermis treated with DMSO at 0.005% were put in each set for Fontana Masson staining in order to compare the effects of the SLT-008.
Melanin deposition on 6 μm paraffin sections of each epidermis was stained by Fontana-Masson reagents (VWR-VWRK641295, VWRK641311; Klinipath-641215). […]
For the melanin quantification, 3 pictures of each epidermis were taken and analyzed by using the Leica QWin3 software. […]
Melanin content was determined from Fontana-Masson stained sections (% relative to DMSO 0.005%). […]

The next series concerns reconstructed epidermis. Description: Melanin content by chemical (solvable) extraction of reconstructed epidermis. Conditions: applied at 1 and 0.1 μg/ml and more so at 0.3 μg/ml. It is filed as cell-based, human. On the procedure:
Using similar methods described previously in this Example, the experiments were repeated. At the end of these treatments, tissues (n=3) were removed from their inserts and immerged in a solvable extraction solution (Perkin Elmer-NJTSRN8010060) and heated at 80° C. for 1 h. The optical density of the supernatants was measured at 490 nm with a spectrophotometer (GloMax-Promega) and the melanin content was determined by comparison with a standard curve of synthetic melanin (Sigma-M8631)

The subject of series [6] is apoptotic cells in the epidermis of human skin explants. Description: Stripping-induced apoptosis DNA protection study, TUNEL assay on skin explants. Type of series: cell-based. Particulars: 0.9% in absolute ethanol, after tape stripping, Day 11, significant. The text has this:
The aim of this study was to perform complementary immunostaining of TUNEL (apoptotic cell marker).
Histological processing: 5-μm-thick sections were made using a Leica RM 2125 Minot-type microtome, and the sections were mounted on Superfrost® histological glass slides. The microscopical observations were realized using a Leica DMLB, an Olympus BX43 or BX63 microscope. Pictures were digitized with a numeric DP72 or DP74 Olympus camera with CellSens storing software.
The staining was semi-quantified by image analysis.
Image analysis method: The images analyses was performed on all the images of the selected batch using CellSens software. Stained surfaces comparisons
The stained surface percentage (Surf %) for the treatment is compared to the untreated condition=>S vs T; SP vs S.

Sequence of SIK3(h) (Q9Y2K2 whole entry): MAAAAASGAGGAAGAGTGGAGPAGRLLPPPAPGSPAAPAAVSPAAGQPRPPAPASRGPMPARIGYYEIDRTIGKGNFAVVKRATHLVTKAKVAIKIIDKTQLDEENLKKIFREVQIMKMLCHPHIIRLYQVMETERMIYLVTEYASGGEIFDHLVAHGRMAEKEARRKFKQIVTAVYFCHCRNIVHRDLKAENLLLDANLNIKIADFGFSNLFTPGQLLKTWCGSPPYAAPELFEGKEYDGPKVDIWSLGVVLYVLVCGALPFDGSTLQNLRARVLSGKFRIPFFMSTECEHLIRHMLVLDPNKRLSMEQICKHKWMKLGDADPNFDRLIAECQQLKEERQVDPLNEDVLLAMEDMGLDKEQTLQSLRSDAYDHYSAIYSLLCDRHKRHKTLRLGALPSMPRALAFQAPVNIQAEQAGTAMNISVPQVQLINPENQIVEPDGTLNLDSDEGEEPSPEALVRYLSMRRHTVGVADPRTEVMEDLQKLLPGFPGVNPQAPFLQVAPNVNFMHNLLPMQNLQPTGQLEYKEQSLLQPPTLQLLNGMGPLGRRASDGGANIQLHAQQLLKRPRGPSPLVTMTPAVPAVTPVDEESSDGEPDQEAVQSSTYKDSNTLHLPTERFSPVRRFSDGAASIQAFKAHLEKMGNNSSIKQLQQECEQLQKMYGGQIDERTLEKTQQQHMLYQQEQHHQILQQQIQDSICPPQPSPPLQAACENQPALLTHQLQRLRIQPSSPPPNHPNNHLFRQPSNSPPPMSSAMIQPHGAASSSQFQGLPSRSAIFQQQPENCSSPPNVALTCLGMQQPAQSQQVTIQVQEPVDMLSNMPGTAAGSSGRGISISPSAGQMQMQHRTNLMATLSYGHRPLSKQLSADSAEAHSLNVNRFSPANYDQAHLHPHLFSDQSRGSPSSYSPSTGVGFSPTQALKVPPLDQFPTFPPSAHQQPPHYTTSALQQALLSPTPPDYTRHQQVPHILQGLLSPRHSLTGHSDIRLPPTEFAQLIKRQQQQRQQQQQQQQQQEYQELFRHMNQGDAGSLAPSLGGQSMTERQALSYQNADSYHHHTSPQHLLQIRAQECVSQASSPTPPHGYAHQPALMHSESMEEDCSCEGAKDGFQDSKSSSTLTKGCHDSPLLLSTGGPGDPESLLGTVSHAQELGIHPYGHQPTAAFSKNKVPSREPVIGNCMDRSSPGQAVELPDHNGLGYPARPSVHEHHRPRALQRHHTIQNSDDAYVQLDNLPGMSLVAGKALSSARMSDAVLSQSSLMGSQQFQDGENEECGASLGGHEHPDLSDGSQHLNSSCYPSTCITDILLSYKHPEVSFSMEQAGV

Take `Cc1cccc(C)c1N1Cc2cnc(Nc3ccc(N4CCN(C)CC4)cc3)nc2N(C23CC4CC(CC(C4)C2)C3)C1=O` [SLT-008, 1-((3s,5s,7s)-adamantan-1-yl)-3-(2,6-dimethylphenyl)-7-((4-(4-methylpiperazin-1-yl)phenyl)amino)-3,4-dihydropyrimido[4,5-d]pyrimidin-2(1H)-one]: the pIC50 on SIK3(h) (Estimated IC50 Values, SIK3(h), ATP 45 μM) is under 7.70; at SIK3(h) (SIK3), under 7.70. The “melanin pigmentation (Fontana Masson staining)” value in series [1] (1 mM in PEG/Ethanol/Transcutol) and in series [1] (3 mM in PEG/Ethanol/Transcutol) was “induced melanin pigment dots at the stratum lucidum level” each time. The “melanin transfer to keratinocytes and nuclear capping” value in series [1] (3 mM) was “induced melanin transfer to keratinocytes and nuclear capping was observed”. The cell viability entry in series [2] (0.5% and 0.9% topical, compared to the stripped batch) was “no modification of cell viability”. For the same compound, the melanin increase in series [2] (0.9% dose, topical, stripped explants, significant (p<0.1)) was 36%. In series [3], the “morphologic alteration (H/E staining)” value is reported as “no morphologic alteration”. Besides, the “LDH release from tissues” value in series [4] (0.3 μg/ml, after 10 days of treatment, without reaching the set cytotoxic level) is “Slight and significant increase”. For the same compound, the “tissue integrity (LDH release)” value in series [4] (application for 10 days) was “did not induce relevant alteration of the tissue integrity”. Also, the results for the “melanin content (Fontana-Masson stained sections)” value in series [5] (0.011 μg/ml) and in series [5] (0.3 μg/ml) were 125.6+/−15.4% and 129+/−5.7%, respectively. In addition, the “pigmentation / melanin content (Fontana-Masson)” value in series [5] (0.3 μg/ml vs DMSO 0.005%) is given as “significantly increased; also recorded: significant increase”. The “melanin content by chemical extraction” value in the series on reconstructed epidermis is recorded as “increased, with a dose effect”. Also, the “decrease of apoptotic cell numbers (TUNEL stained surface)” value in series [6] is 97%.

In the case of `CC(C)Cn1c(=O)n(C)c(=O)c2[nH]cnc21` [IBMX, reference compound], the “pigmentation (Fontana-Masson)” value in series [5] (positive controls: forskolin 3.33 μM, IBMX 150 μM, vs DMSO 0.05%) was “increased”.

Broadly, the pIC50 is −log10 of the IC50, conventionally taken in molar units.
